The values below come from patent publication US20090253692A1, “CRYSTALLINE FORM OF N-[[4-FLUORO-2-(5-METHYL-1H-1,2,4-TRIAZOL-1-YL)PHENYL]METHYL]-4,6,7,9-TETRAHYDRO-3-HYDROXY-9,9-DIMETHYL-4-OXO-PYRIMIDO[2,1-C][1,4]OXAZINE-2-CARBOXAMIDE, SODIUM SALT MONOHYDRATE” (Bristol-Myers Squibb Company, priority 2008, published 2009).

“Also recorded” adds a separate entry of the source. Where two headings read alike, the source gives them in different places. Bounds are passed on as bounds.

The nature of data set [1]: Moisture content by weight loss in vacuum oven. Type of data set: physicochemical. As to conditions: 5 gm in a vacuum oven at 60° C. for six hours. As for the experimental part: Particle analysis. […] The sample was checked for moisture content by placing 5 gm in a vacuum oven at 60° C. for six hours and checking weight loss. The free acid lost 0.22% of its initial weight. […] The sample was checked for moisture content by placing 5 gm in a vacuum oven at 60° C. for six hours and checking weight loss. The salt monohydrate lost 0.18% of its initial weight.

Data set [2] is described as follows: Particle size analysis using an Aerosizer instrument. Format: physicochemical.
The nature of the next data set: Bulk and true densities. Format: physicochemical.
The nature of data set [3]: Dust hazard analysis: charge decay time estimation. Format: physicochemical.
Data set [4] is described as follows: Dust hazard analysis: ignition sensitivity of dust cloud. As to conditions: for Susceptibility to ignition as a dust cloud: result in words. Type of data set: physicochemical. From the text:
(§1) “μm” means micrometer. “gm” means gram. “cc” means cubic centimeter. “gm/cc” means gram per cubic centimeter. “Kst” is the deflagration index of a dust expressed in bar-meter per second. “bar-m/s” means bar meter per sec. “bar/s” means bar per second. “mJ” means millijoules. “St” is the geneal classification designation for explosible dusts: “St-2” is classified as a strong explosion designation and has Kst>200 bar-m/sec; “St-1” is not classified as a strong explosion and has Kst<200 bar-m/sec.
(§2) Twenty liter sphere testing (see Proust, C.; Accorsi, A.; Dupont, L. Journal of Loss prevention in the Process Industries, vol. 20, 2007.) places the sample in the St-2 (strong explosion) class with a Kst value of 238 bar-m/s.
(§3) Therefore, twenty liter sphere testing was not required.

Data set [5] can be described thus: Dust hazard analysis: explosion severity (twenty liter sphere testing), Kst and St classification. Type of data set: physicochemical. As to conditions: for Explosion Severity (Max Pressure) / Explosion Severity (Max rate): dust explosion risk; for St Classification: general classification designation for explosible dusts.
Source text: as §1, §2, §3

In a further data set the target is HIV integrase (Human immunodeficiency virus type 1 group M subtype B, UniProt P04585). The conditions noted are these: result in words, see U.S. Pat. No. 7,176,196, sodium salt monohydrate, cited from earlier work.

In the case of `Cc1ncnn1-c1cc(F)ccc1CNC(=O)c1nc2n(c(=O)c1[O-])CCOC2(C)C.[Na+]` [Compound (I), N-[[4-fluoro-2-(5-methyl-1H-1,2,4-triazol-1-yl)phenyl]methyl]-4,6,7,9-tetrahydro-3-hydroxy-9,9-dimethyl-4-oxo-pyrimido[2,1-c][1,4]oxazine-2-carboxamide, sodium salt monohydrate], the “Moisture content: loss of initial weight” value in data set [1] came to 0.18%. In data set [2], the “Particle size, 95% of sample below” value is less than 33.6 μm and the “Particle size, mean value” came out at 14.8 μm. In “Bulk and true densities”, this compound came in with a Bulk density of 0.42 gm/cc and a True density of 1.53 gm/cc. Also, the “Charge Decay Time Estimation” value in data set [3] is 33 min. In addition, in data set [4] (dust explosion risk), the “Minimum Ignition Energy” value is more than 500 mJ and the “Minimum Ignition Temperature” value is more than 600 °C. Besides, in data set [4], the “Susceptibility to ignition as a dust cloud” value is recorded as “low susceptibility to ignition as a dust cloud”. In data set [5], the “Explosion Severity (Max Pressure)” value stood at 1.5 bar; the “Explosion Severity (Max rate)” value was 154 bar/s; the “St Classification” value was “St-1 (“St-1” is not classified as a strong explosion and has Kst<200 bar-m/sec)”. Moreover, in data set [5] (result in words), the Explosion characteristics result is reported as “weak to moderate explosion characteristics”. In addition, the “Binding to and antagonism / inhibition of HIV integrase” value on HIV integrase (listed as Compound I) was “demonstrated inhibition of HIV integrase”. In addition, the “Binding to and antagonism / inhibition of HIV integrase” value on HIV integrase is “potently bind to and act as an antagonist to HIV integrase”.
On to `Cc1ncnn1-c1cc(F)ccc1CNC(=O)c1nc2n(c(=O)c1O)CCOC2(C)C` [Free acid], for which the “Moisture content: loss of initial weight” value in data set [1] is 0.22%. Moreover, in data set [2], the “Particle size, 95% of sample below” value is given as less than 32.9 μm and the “Particle size, mean value” was found to be 16.3 μm. In the data set “Bulk and true densities”, this compound gave a Bulk density of 0.34 gm/cc and a True density of 1.40 gm/cc. Besides, in data set [3], the “Charge Decay Time Estimation” value was 330 min. Further, the “Susceptibility to ignition as a dust cloud” value in data set [4] was “extremely susceptible to igniting as a dust cloud; also recorded: high susceptibility to ignition and risk for explosion”. In data set [5] (deflagration index of a dust), this compound registered a Kst value of 238 bar · m/s. Further, in data set [5], the “Explosion Severity (Max Pressure)” value was determined as 8.2 bar; the “Explosion Severity (Max rate)” value turned out to be 878 bar/s; the “St Classification” value was “St-2 (“St-2” is classified as a strong explosion designation and has Kst>200 bar-m/sec)”. This compound had a Kst value in data set [5] (twenty liter sphere testing) of 238 bar-m/s.
